Data from patent US20250163104A1, “MACROCYCLIC IMMUNOMODULATORS” (priority 2021, published 2025).
Where a SMILES comes first, the peptide text is derived from it. Bridges are numbered along the chain shown (N, C = ends). [ ]: non-standard residue; d: D form. The star is where a group is joined. Ala(1H-tetrazol-5-yl) = N[C@@H](Cc1nnn[nH]1)C(=O)O; Phe(4-COOH) = N[C@@H](Cc1ccc(C(=O)O)cc1)C(=O)O; Bip = N[C@@H](Cc1ccc(-c2ccccc2)cc1)C(=O)O; Phe(3-Me) = Cc1cccc(C[C@H](N)C(=O)O)c1; 1Nal = N[C@@H](Cc1cccc2ccccc12)C(=O)O; 3Pal = N[C@@H](Cc1cccnc1)C(=O)O; 4Pal = N[C@@H](Cc1ccncc1)C(=O)O; Cha = N[C@@H](CC1CCCCC1)C(=O)O; Cit = NC(=O)NCCC[C@H](N)C(=O)O; Carboxymethyl = O=C(O)C*; Orn = NCCC[C@H](N)C(=O)O; Dab = NCC[C@H](N)C(=O)O; Dap = NC[C@H](N)C(=O)O

target: T1, human PD-1 / PD-L1-Ig binding on Jurkat cell line over-expressing human PD-1 (Jurkat-PD-1) (Homo sapiens, UniProt Q15116); assay: Jurkat-PD-1 Cell Binding High-Content Screening Assay (CBA); assay type: cell-based; settings: Jurkat-PD-1 cells, PE-labeled PD-L1-Ig 20 nM final; read-out: Jurkat HPD1_PDL1 IC50
T1 construct: expressed in transfected cells; host or cells: Jurkat
Outline: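 Binding of fluorescent PD-L1-Ig (phycoerythrin linked via the Ig tag, 20 nM final) to PD-1-overexpressing Jurkat cells was imaged after a 2 h, 37° C compound pretreatment and 1 hour ligand incubation.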

T1 sequence (Q15116 25-288): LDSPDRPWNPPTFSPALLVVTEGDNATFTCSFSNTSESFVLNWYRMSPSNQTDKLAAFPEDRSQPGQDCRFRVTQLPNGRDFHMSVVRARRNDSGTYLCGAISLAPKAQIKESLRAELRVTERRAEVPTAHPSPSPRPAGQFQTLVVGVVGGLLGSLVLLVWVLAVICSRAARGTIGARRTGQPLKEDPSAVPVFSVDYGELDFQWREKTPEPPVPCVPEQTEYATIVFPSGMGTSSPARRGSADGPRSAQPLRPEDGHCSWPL

Structure (SMILES)	IC50 [nM]
CC(C)C[C@@H]1NC(=O)[C@H](Cc2c[nH]c3ccccc23)NC(=O)[C@H](CC(=O)O)NC(=O)[C@H](Cc2ccc(O)cc2)NC(=O)[C@H](Cc2ccccc2)NC(=O)CSC[C@@H](C(=O)NCC(N)=O)NC(=O)[C@H](CO)NC(=O)[C@H](C(C)C)NC(=O)[C@H](CC(C)C)NC(=O)[C@H](CC(N)=O)NC(=O)[C@@H](C)NC(=O)[C@H](CN)NC(=O)[C@H](C(C)C)NC(=O)[C@H](Cc2ccc(-c3ccccc3)cc2)NC1=O [Compound 1077] ({CH2CO}-FYDWL[Bip]V[Dap][dA]NLVSCG-NH2; thioether N-14)	46.7
CC(C)C[C@H]1NC(=O)[C@H](CCCN)NC(=O)[C@H](C(C)C)NC(=O)[C@H](Cc2ccc(-c3ccccc3)cc2)NC(=O)[C@H](C(C)C)NC(=O)[C@H](Cc2cccc(Cl)c2)NC(=O)[C@H](CC(=O)O)NC(=O)[C@H](Cc2ccc(C(=O)O)cc2)NC(=O)[C@H](Cc2ccc(OCC(=O)O)cc2)NC(=O)CSC[C@@H](C(=O)N[C@@H](C)C(N)=O)NC(=O)[C@H]([C@@H](C)O)NC(=O)[C@H](C(C)C)NC(=O)[C@H](CC2CCCCC2)NC(=O)[C@H](CCN)NC1=O [Compound 1569]	16.4
CC(C)[C@@H]1NC(=O)[C@H](Cc2c[nH]c3ccccc23)NC(=O)[C@H](CC(=O)O)NC(=O)[C@H](Cc2ccc(C(=O)O)cc2)NC(=O)[C@H](Cc2ccncc2)NC(=O)CSC[C@@H](C(=O)N[C@@H](C)C(N)=O)NC(=O)[C@H]([C@@H](C)O)NC(=O)[C@H](C(C)C)NC(=O)[C@H](CC2CCCCC2)NC(=O)[C@H](CCN)NC(=O)[C@@H](Cc2ccccc2)NC(=O)[C@H](CCCN)NC(=O)[C@H](CCC(=O)O)NC(=O)[C@H](Cc2ccc(-c3ccccc3)cc2)NC1=O [Compound 1432] ({CH2CO}-[4Pal][Phe(4-COOH)]DWV[Bip]E[Orn][dF][Dab][Cha]VTCA-NH2; thioether N-14)	17.4
CC(C)C[C@H]1NC(=O)[C@H](CCCN)NC(=O)[C@H](C(C)C)NC(=O)[C@H](Cc2ccc(-c3ccccc3)cc2)NC(=O)[C@H](C(C)C)NC(=O)[C@H](Cc2c[nH]c3ccccc23)NC(=O)[C@H](CC(=O)O)NC(=O)[C@H](Cc2ccc(OCC(=O)O)cc2)NC(=O)[C@H](CN)NC(=O)CSC[C@@H](C(=O)N[C@@H](C)C(N)=O)NC(=O)[C@H](Cc2cnc[nH]2)NC(=O)[C@H](C(C)C)NC(=O)[C@H](CC2CCCCC2)NC(=O)[C@H](CCN)NC1=O [Compound 1750] ({CH2CO}-[Dap]Y(Carboxymethyl)DWV[Bip]V[Orn][dL][Dab][Cha]VHCA-NH2; thioether N-14)	11.3
CC(C)C[C@H]1NC(=O)[C@H](CCCN)NC(=O)[C@H](CCC(=O)O)NC(=O)[C@H](Cc2ccc(-c3ccccc3)cc2)NC(=O)[C@H](C(C)C)NC(=O)[C@H](Cc2c[nH]c3ccccc23)NC(=O)[C@H](CCC(=O)O)NC(=O)[C@H](Cc2ccc(OCC(=O)O)cc2)NC(=O)[C@H](CN)NC(=O)CSC[C@@H](C(=O)N[C@@H](C)C(N)=O)NC(=O)[C@H]([C@@H](C)O)NC(=O)[C@H](C(C)C)NC(=O)[C@H](CC2CCCCC2)NC(=O)[C@H](CCN)NC1=O [Compound 2198] ({CH2CO}-[Dap]Y(Carboxymethyl)EWV[Bip]E[Orn][dL][Dab][Cha]VTCA-NH2; thioether N-14)	803
Cc1cccc(C[C@@H]2NC(=O)[C@H](CC(=O)O)NC(=O)[C@H](Cc3ccc(OCC(=O)O)cc3)NC(=O)[C@H](CN)NC(=O)CSC[C@@H](C(N)=O)NC(=O)[C@H](CCCN)NC(=O)[C@H](C(C)C)NC(=O)[C@H](CC3CCCCC3)NC(=O)[C@H](CCN)NC(=O)[C@@H](CC(C)C)NC(=O)[C@H](CCCN)NC(=O)[C@H](Cc3ccc(OCC(=O)O)cc3)NC(=O)[C@H](Cc3ccc(-c4ccccc4)cc3)NC(=O)[C@H](Cc3ccc(OCC(=O)O)cc3)NC2=O)c1 [Compound 1779] ({CH2CO}-[Dap]Y(Carboxymethyl)D[Phe(3-Me)]Y(Carboxymethyl)[Bip]Y(Carboxymethyl)[Orn][dL][Dab][Cha]V[Orn]C-NH2; thioether N-14)	16.6
CC(C)C[C@H]1NC(=O)[C@H](CCCN)NC(=O)[C@H](CCCNC(N)=O)NC(=O)[C@H](Cc2ccc(-c3ccccc3)cc2)NC(=O)[C@H](C(C)C)NC(=O)[C@H](Cc2c[nH]c3ccccc23)NC(=O)[C@H](Cc2nn[nH]n2)NC(=O)[C@H](Cc2ccc(OCC(=O)O)cc2)NC(=O)[C@H](CN)NC(=O)CSC[C@@H](C(=O)N[C@@H](C)C(N)=O)NC(=O)[C@H]([C@@H](C)O)NC(=O)[C@H](C(C)C)NC(=O)[C@H](CC2CCCCC2)NC(=O)[C@H](CCN)NC1=O [Compound 1328] ({CH2CO}-[Dap]Y(Carboxymethyl)[Ala(1H-tetrazol-5-yl)]WV[Bip][Cit][Orn][dL][Dab][Cha]VTCA-NH2; thioether N-14)	34.5
CCC(C)[C@@H]1NC(=O)[C@H](Cc2ccc(-c3ccccc3)cc2)NC(=O)[C@H](C(C)C)NC(=O)[C@H](Cc2cc(C)ccc2F)NC(=O)[C@H](CC(=O)O)NC(=O)[C@H](Cc2ccc(OCC(=O)O)cc2)NC(=O)[C@H](CN)NC(=O)CSC[C@@H](C(=O)N[C@@H](C)C(N)=O)NC(=O)[C@H]([C@@H](C)O)NC(=O)[C@H](C(C)C)NC(=O)[C@H](CC2CCCCC2)NC(=O)[C@H](CCN)NC(=O)[C@@H](CC(C)C)NC(=O)[C@H](CCCN)NC1=O (stereo partly drawn) [Compound 2247]	13.3
CC(C)C[C@H]1NC(=O)[C@H](CCCN)NC(=O)[C@H](CCC(=O)O)NC(=O)[C@H](Cc2ccc(-c3ccccc3)cc2)NC(=O)[C@H](C(C)C)NC(=O)[C@H](Cc2cccc3ccccc23)NC(=O)[C@H](CC(=O)O)NC(=O)[C@H](Cc2ccc(OCC(=O)O)cc2)NC(=O)[C@H](CN)NC(=O)CSC[C@@H](C(=O)N[C@@H](C)C(N)=O)NC(=O)[C@H]([C@@H](C)O)NC(=O)[C@H](C(C)C)NC(=O)[C@H](CC2CCCCC2)NC(=O)[C@H](CCN)NC1=O [Compound 2146] ({CH2CO}-[Dap]Y(Carboxymethyl)D[1Nal]V[Bip]E[Orn][dL][Dab][Cha]VTCA-NH2; thioether N-14)	10.6

The remaining lines, values ahead:

IC50 [nM]	Structure (SMILES)
6.7	CC(C)C[C@@H]1NC(=O)[C@H](CCN)NC(=O)[C@@H](CC(C)C)NC(=O)[C@H](CCCN)NC(=O)[C@H](C(C)C)NC(=O)[C@H](Cc2ccc(-c3ccccc3)cc2)NC(=O)[C@H](C(C)C)NC(=O)[C@H](Cc2c[nH]c3ccccc23)NC(=O)[C@H](CC(=O)O)NC(=O)[C@H](Cc2ccc(O)cc2)NC(=O)[C@H](Cc2ccncc2)NC(=O)CSC[C@@H](C(=O)N[C@@H](C)C(N)=O)NC(=O)[C@H]([C@@H](C)O)NC(=O)[C@H](C(C)C)NC1=O [Compound 1047] ({CH2CO}-[4Pal]YDWV[Bip]V[Orn][dL][Dab]LVTCA-NH2; thioether N-14)
912	CC[C@H](C)[C@@H]1NC(=O)[C@H](CCN)NC(=O)[C@@H](CC(C)C)NC(=O)[C@H](CCCN)NC(=O)[C@H](CCCNC(N)=O)NC(=O)[C@H](Cc2ccc(-c3ccccc3)cc2)NC(=O)[C@H](C(C)C)NC(=O)[C@H](Cc2c[nH]c3ccccc23)NC(=O)[C@H](CC(=O)O)NC(=O)[C@H](Cc2ccc(OCC(=O)O)cc2)NC(=O)[C@H](CN)NC(=O)CSC[C@@H](C(=O)N[C@@H](C)C(N)=O)NC(=O)[C@H]([C@@H](C)O)NC(=O)[C@H](C(C)C)NC1=O [Compound 1317] ({CH2CO}-[Dap]Y(Carboxymethyl)DWV[Bip][Cit][Orn][dL][Dab]IVTCA-NH2; thioether N-14)
28.4	CC(C)C[C@@H]1NC(=O)[C@H](CCN)NC(=O)[C@@H](CC(C)C)NC(=O)[C@H](CCCN)NC(=O)[C@H](CCCNC(N)=O)NC(=O)[C@H](Cc2ccc(-c3ccccc3)cc2)NC(=O)[C@H](C(C)C)NC(=O)[C@H](Cc2c[nH]c3ccccc23)NC(=O)[C@H](CC(=O)O)NC(=O)[C@H](Cc2ccc(C(=O)O)cc2)NC(=O)[C@H](Cc2cccnc2)NC(=O)CSC[C@@H](C(=O)N[C@@H](C)C(N)=O)NC(=O)[C@H]([C@@H](C)O)NC(=O)[C@H](C(C)C)NC1=O [Compound 1045] ({CH2CO}-[3Pal][Phe(4-COOH)]DWV[Bip][Cit][Orn][dL][Dab]LVTCA-NH2; thioether N-14)
17	CC[C@H](C)[C@@H]1NC(=O)[C@H](Cc2ccc(-c3ccccc3)cc2)NC(=O)[C@H](C(C)C)NC(=O)[C@H](Cc2c[nH]c3ccccc23)NC(=O)[C@H](CC(=O)O)NC(=O)[C@H](Cc2ccc(O)cc2)NC(=O)[C@H](Cc2ccc(OCC(=O)O)cc2)NC(=O)CSC[C@@H](C(=O)N[C@@H](C)C(N)=O)NC(=O)[C@H]([C@@H](C)O)NC(=O)[C@H](C(C)C)NC(=O)[C@H](CC2CCCCC2)NC(=O)[C@H](CCN)NC(=O)[C@@H](CC(C)C)NC(=O)[C@H](CCCN)NC1=O [Compound 1167]
11.6	CC(C)C[C@H]1NC(=O)[C@H](CCCN)NC(=O)[C@H](CCC(=O)O)NC(=O)[C@H](Cc2ccc(-c3ccccc3)cc2)NC(=O)[C@H](C(C)C)NC(=O)[C@H](Cc2c[nH]c3ccccc23)NC(=O)[C@H](CC(=O)O)NC(=O)[C@H](Cc2ccncc2)NC(=O)[C@H](Cc2ccccc2)NC(=O)CSC[C@@H](C(=O)N[C@@H](C)C(N)=O)NC(=O)[C@H]([C@@H](C)O)NC(=O)[C@H](C(C)C)NC(=O)[C@H](CC2CCCCC2)NC(=O)[C@H](CCN)NC1=O [Compound 2196] ({CH2CO}-F[4Pal]DWV[Bip]E[Orn][dL][Dab][Cha]VTCA-NH2; thioether N-14)
13	CC(C)C[C@@H]1NC(=O)[C@H](CCCCN)NC(=O)[C@@H](CC(C)C)NC(=O)[C@H](CCCN)NC(=O)[C@H](Cc2cnc[nH]2)NC(=O)[C@H](Cc2ccc(-c3ccccc3)cc2)NC(=O)[C@H](C(C)C)NC(=O)[C@H](Cc2c[nH]c3ccccc23)NC(=O)[C@H](CC(=O)O)NC(=O)[C@H](Cc2ccc(O)cc2)NC(=O)[C@H](CC(N)=O)NC(=O)CSC[C@@H](C(=O)NCC(N)=O)NC(=O)[C@H](CO)NC(=O)[C@H](C(C)C)NC1=O [Compound 1135] ({CH2CO}-NYDWV[Bip]H[Orn][dL]KLVSCG-NH2; thioether N-14)
